pEC50: −log10 of the molar value.

The experiment has as its target T1, human apelin receptor (Homo sapiens, UniProt P35414).
T1 construct: expressed in transfected cells
T1 sequence (P35414 1-380): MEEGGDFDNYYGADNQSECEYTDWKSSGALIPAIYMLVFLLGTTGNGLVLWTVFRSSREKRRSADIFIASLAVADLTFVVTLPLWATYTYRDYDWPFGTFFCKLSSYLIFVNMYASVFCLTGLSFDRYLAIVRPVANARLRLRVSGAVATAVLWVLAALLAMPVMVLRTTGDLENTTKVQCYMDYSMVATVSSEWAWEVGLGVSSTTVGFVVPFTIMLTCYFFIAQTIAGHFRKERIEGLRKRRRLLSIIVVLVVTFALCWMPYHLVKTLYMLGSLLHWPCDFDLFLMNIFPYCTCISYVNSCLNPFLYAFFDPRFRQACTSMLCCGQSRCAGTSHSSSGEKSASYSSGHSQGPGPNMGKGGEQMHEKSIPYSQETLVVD
Description: Determination of agonism on the human apelin receptor by a calcium fluorescence assay (FLIPR). The format is cell-based. To be noted: HEK293 cells stably transfected with human apelin receptor and Giaq protein, Fluo-4 calcium fluorescence, read-out: EC50 (APJ agonism). The essentials:
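HEK293 cells stably co-expressing human apelin receptor and promiscuous Giaq, loaded 1 h at 37 °C with Fluo-4 (4 μM) in probenecid-containing Hepes buffer, pH 7.4. Compounds, at least 7 concentrations in triplicate, added in FLIPR Tetra; peak calcium fluorescence normalized to 1 μM apelin-13 as 100% to derive EC50.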

One may read the pEC50 as the EC50 on a negative log10 scale, so that one unit is a factor of ten. Regarding `CCC(CC)n1c(Cc2cccs2)nc2cc(C(=O)N[C@@H](CC3CCCCC3)[C@H](O)CC(=O)O)ccc21` [Example 73, (3R,4S)-5-Cyclohexyl-4-{[1-(1-ethyl-propyl)-2-thiophen-2-ylmethyl-1H-benzoimidazole-5-carbonyl]-amino}-3-hydroxy-pentanoic acid], the pEC50 was 7.19. With `CCC(CC)n1c(Cc2cccs2)nc2cc(C(=O)NC(CC(=O)O)CC(C)(C)C)ccc21` (centres unmarked) [Example 47, 3-{[1-(1-Ethyl-propyl)-2-thiophen-2-ylmethyl-1H-benzoimidazole-5-carbonyl]-amino}-5,5-dimethyl-hexanoic acid], the pEC50 is 5.59. As to `CC(C)C[C@H](NC(=O)c1ccc2c(c1)nc(Cc1cccs1)n2C1CCCC1C)C(=O)O` (stereo partly drawn) [Example 90, (S)-4-Methyl-2-{[1-(2-methyl-cyclopentyl)-2-thiophen-2-ylmethyl-1H-benzoimidazole-5-carbonyl]-amino}-pentanoic acid], the pEC50 is 6.33. For the compound `CCC(CC)n1c(Cc2cccs2)nc2cc(C(=O)NC(CCO)c3ccsc3)ccc21` (centres unmarked) [Example 212, 1-(1-Ethyl-propyl)-2-thiophen-2-ylmethyl-1H-benzoimidazole-5-carboxylic acid (3-hydroxy-1-thiophen-3-yl-propyl)-amide], the pEC50 was 5.03.

In the case of `CCC(CC)n1c(Cc2cccs2)nc2cc(C(=O)NC(CC)(C(=O)O)c3ccccc3)ccc21` (centres unmarked) [Example 7, 2-{[1-(1-Ethyl-propyl)-2-thiophen-2-ylmethyl-1H-benzoimidazole-5-carbonyl]-amino}-2-phenyl-butyric acid], the pEC50 is 4.35.

As for `CCC(CC)n1c(Cc2cccs2)nc2cc(C(=O)N[C@@H](CC(C)C)C(=O)NC3CCN(Cc4cccc(F)c4)CC3)ccc21` [Example 301, 1-(1-Ethyl-propyl)-2-thiophen-2-ylmethyl-1H-benzoimidazole-5-carboxylic acid {(S)-1-[1-(3-fluoro-benzyl)-piperidin-4-ylcarbamoyl]-3-methyl-butyl}-amide], the pEC50 is 5.61. As for `CCC(CC)n1c(Cc2cccs2)nc2cc(C(=O)N[C@H](CO)CC(C)C)ccc21` [Example 209, 1-(1-Ethyl-propyl)-2-thiophen-2-ylmethyl-1H-benzoimidazole-5-carboxylic acid ((S)-1-hydroxymethyl-3-methyl-butyl)-amide], the pEC50 was 6.60. As for `CCC(CC)n1c(Cc2cccs2)nc2cc(C(=O)N[C@@H](CC(C)C)[C@@H](O)C(=O)O)ccc21` [Example 67, (2R,3S)-3-{[1-(1-Ethyl-propyl)-2-thiophen-2-ylmethyl-1H-benzoimidazole-5-carbonyl]-amino}-2-hydroxy-5-methyl-hexanoic acid], the pEC50 was 7.10.

Consider `CCC(CC)n1c(Cc2cccs2)nc2cc(C(=O)N[C@@H](CC(C)C)C(=O)NCC3CCOCC3)ccc21` [Example 369, 1-(1-Ethyl-propyl)-2-thiophen-2-ylmethyl-1H-benzoimidazole-5-carboxylic acid {(S)-3-methyl-1-[(tetrahydro-pyran-4-ylmethyl)-carbamoyl]-butyl}-amide], for which the pEC50 is 5.66. The result for `CCCC(CC(=O)O)NC(=O)c1ccc2c(c1)nc(Cc1cccs1)n2[C@@H]1CCCC[C@H]1C` (single isomer, unassigned) [Example 458] reads 6.91.

On to `CC(C)C[C@@H](CC(=O)O)NC(=O)c1ccc2c(c1)nc(Cc1ccco1)n2C1CCCCC1C` (single isomer, unassigned) [Example 434], for which the pEC50 is 6.37. The value for `CCC(CC)n1c(Cc2ccco2)nc2cc(C(=O)NC(CC(=O)O)C(C)C)ccc21` (centres unmarked) [Example 41, 3-{[1-(1-Ethyl-propyl)-2-furan-2-ylmethyl-1H-benzoimidazole-5-carbonyl]-amino}-4-methyl-pentanoic acid] was 5.61. The value for `CCC(CC)n1c(Cc2cccs2)nc2cc(C(=O)NC(CO)c3ccccc3)ccc21` (centres unmarked) [Example 202, 1-(1-Ethyl-propyl)-2-thiophen-2-ylmethyl-1H-benzoimidazole-5-carboxylic acid (2-hydroxy-1-phenyl-ethyl)-amide] was 4.84. The result for `CCC(CC)n1c(Cc2cccs2)nc2cc(C(=O)N[C@@H](CC(C)C)C(=O)N3CCN(Cc4ccc5c(c4)OCO5)CC3)ccc21` [Example 311, 1-(1-Ethyl-propyl)-2-thiophen-2-ylmethyl-1H-benzoimidazole-5-carboxylic acid [(S)-1-(4-benzo[1,3]dioxol-5-ylmethyl-piperazine-1-carbonyl)-3-methyl-butyl]-amide] reads 4.67; that for `CCCC[C@H](NC(=O)c1ccc2c(c1)nc(Cc1cccs1)n2C1CCCCC1C)C(=O)O` (single isomer, unassigned) [Example 423], 5.01. In the case of `C[C@@H]1CCCC[C@H]1n1c(Cc2cccs2)nc2cc(C(=O)NC(CC3CCC(C)(C)CC3)C(=O)O)ccc21` (single isomer, unassigned) [Example 446], the pEC50 was 5.67. `CCC(CC)n1c(Cc2cccs2)nc2cc(C(=O)N[C@@H](CC(C)C)C(=O)NC3CCN(Cc4ccccc4)CC3)ccc21` [Example 313, 1-(1-Ethyl-propyl)-2-thiophen-2-ylmethyl-1H-benzoimidazole-5-carboxylic acid [(S)-1-(1-benzyl-piperidin-4-ylcarbamoyl)-3-methyl-butyl]-amide]: the pEC50 was 5.72. With `CCC(CC)n1c(Cc2cccs2)nc2cc(C(=O)NC(C)(C(=O)O)C(C)C)ccc21` (centres unmarked) [Example 5, 2-{[1-(1-Ethyl-propyl)-2-thiophen-2-ylmethyl-1H-benzoimidazole-5-carbonyl]-amino}-2,3-dimethyl-butyric acid], the pEC50 is 5.01. The value for `CCCCC(NC(=O)c1ccc2c(c1)nc(Cc1cccs1)n2C(CC)CC)C(C)(C)C(=O)O` (single isomer, unassigned) [Example 469] was 7.22.

For `CCC(CC)n1c(Cc2cccs2)nc2cc(C(=O)N[C@@H](CC(C)C)C(=O)Nc3ccc(CN4CCC(C)CC4)cc3)ccc21` [Example 283, 1-(1-Ethyl-propyl)-2-thiophen-2-ylmethyl-1H-benzoimidazole-5-carboxylic acid {(S)-3-methyl-1-[4-(4-methyl-piperidin-1-ylmethyl)-phenylcarbamoyl]-butyl}-amide], the pEC50 is 5.35. For the compound `CCC(CC)n1c(CC2CCCC2)nc2cc(C(=O)N[C@@H](CC3CCCCC3)C(=O)O)ccc21` [Example 3, (S)-3-Cyclohexyl-2-{[2-cyclopentylmethyl-1-(1-ethyl-propyl)-1H-benzoimidazole-5-carbonyl]-amino}-propionic acid], the pEC50 is 5.92. The value for `CCC(CC)n1c(Cc2cccs2)nc2cc(C(=O)N[C@@H](CC(C)C)C(=O)NCC3CCCN(CCc4ccccc4)C3)ccc21` (stereo partly drawn) [Example 302, 1-(1-Ethyl-propyl)-2-thiophen-2-ylmethyl-1H-benzoimidazole-5-carboxylic acid {(S)-3-methyl-1-[(1-phenethyl-piperidin-3-ylmethyl)-carbamoyl]-butyl}-amide] was 6.41. The result for `CCC(CC)n1c(Cc2cccs2)nc2cc(C(=O)N[C@@H](CC(C)C)C(=O)NCCCN3CCC(C)CC3)ccc21` [Example 320, 1-(1-Ethyl-propyl)-2-thiophen-2-ylmethyl-1H-benzoimidazole-5-carboxylic acid {(S)-3-methyl-1-[3-(4-methyl-piperidin-1-yl)-propylcarbamoyl]-butyl}-amide] reads 6.41.

The values are drawn from US9156796B2, “Benzoimidazole-carboxylic acid amide derivatives as APJ receptor modulators” (SANOFI, priority 2013, dated 2015).
